Results from a melting point compilation (Tetko et al.; mined from patent text by program, amines drawn as free bases though some values may be those of a salt).

| SMILES | melting point |
| --- | --- |
| N#CC1=C(N)N(c2ccccc2)CC1=O | 285 to 290 °C |
| CC(C)(C)OC(=O)ON=C(c1ccccc1)c1ccccc1 | 126 to 133 °C |
| CCCC(Cc1ccc(OCc2ccccc2)cc1)C(=O)O (stereo unspecified) | 83 to 85 °C |
| O=C(O)CCc1ccc(OCc2ccc(CN(CCc3ccccc3)c3nc(-c4ccccc4)cs3)cc2)cc1 | 114 to 115 °C |
| CN1C(=O)C2(COc3cc4c(cc32)OCCO4)c2c(NC(=O)C3CCCCC3)cccc21 (stereo unspecified) | 96 to 98 °C |
| COC(=O)Cc1c(C)n(-c2ncnc3cc(Cl)ccc23)c2ccc(OC)cc12 | 112 to 114 °C |
| CS(=O)(=O)c1ccc(C2=C(c3ccc4c(c3)OCO4)CCC2)cc1 | 140 to 141 °C |
| c1ccc(-c2cncs2)cc1 | 45 to 46 °C |
| CC1(C)CCC(C)(C)c2cc(C#Cc3ccc(-c4nnn[nH]4)cc3)ccc21 | 227 to 228 °C |
| CCCC(=O)NCCC1=CCc2ccc(OC)cc21 | 64 to 67 °C |
| Cc1noc2cc(F)c(-n3c(=O)cc(C(F)(F)F)n(C)c3=O)cc12 | 158 to 159 °C |
| COC1(OCCCCl)C=CC(C(=O)O)=CC1 (stereo unspecified) | 157 to 159 °C |
| CCCCC1(N(C)C)CCC(c2[nH]c3ccccc3c2C)(c2[nH]c3ccccc3c2CCNS(=O)(=O)C2CCCC2)CC1 (stereo unspecified) | 111 to 115 °C |
| O=C(O)CCC(CC=Cc1ccccc1)(C(=O)C=Cc1ccc(Cl)cc1)c1ccccc1 (stereo unspecified) | 135 to 140 °C |
| O=c1[nH]c(=O)n(C2C=CC(CBr)O2)cc1C=CBr (stereo unspecified) | > 150 °C |
| O=C(O)c1ccc(OC2=C3N=C4CCCCC4=C3C(CCCCc3ccccc3)C=C2)o1 (stereo unspecified) | 120 to 121 °C |
| CN1C(=O)C(C(=O)Nc2ccc(Oc3nnc(C(C)(C)C)o3)cc2)C(=O)N(C)C1=O | 200 to 203 °C |
| N#Cc1ccc(C=Cc2ccc(C#N)cc2)cc1 | 288 °C |
| O=C(O)CCCCC(=NOCc1ccc(OCc2nc(-c3ccccc3)no2)cc1)c1ccccc1 | 91 to 92 °C |
| COc1ccc(-c2cc(C=O)[nH]c2-c2ccc(OC)cc2)cc1 | 165 to 166 °C |
| COc1cc(/C=C/C(=O)NCCN2CCC(c3c[nH]c4ccccc34)CC2)ccc1O | 115 to 135 °C |
| CN(C)C(=O)N(SC(N)=S)c1ccccc1 | 185 to 188 °C |
| Cn1cc(-c2cccc(Br)c2)c(=O)c(-c2cccc(C(F)(F)F)c2)c1 | 151 to 153 °C |
| CCOC(=O)COc1ccc(OCc2ccccc2)cc1 | 65 to 68 °C |

| SMILES | melting point |
| --- | --- |
| O=C(O)Cc1ccc(NC(=O)c2ccccc2SSc2ccccc2C(=O)Nc2ccc(CC(=O)O)cc2)cc1 | 257 to 260 °C |
| CC(C)C1Cc2cc(OCC(=O)O)cc(Cl)c2C1=O (stereo unspecified) | 126 to 128 °C |
| COC(=O)c1cn(-c2cc(C(=O)OC)c(N)cc2C(F)(F)F)cn1 | 206 to 208 °C |
| COC(=O)Nc1cnc2ccc(Sc3ccccc3)cn12 | 211 to 215 °C |
| CC(NC(=O)OCc1ccccc1)C(=O)N1C(C(=O)O)CC2CCCCC21 (stereo unspecified) | 58.6 °C |
| O=C(O)CCCc1ccc(-c2ccc([N+](=O)[O-])cc2)cc1 | 160 to 161 °C |
| CCCc1nc2c(N)nc3cc(OCC(=O)c4ccccc4)ccc3c2n1CC(C)C | 178 to 180 °C |
| COc1cc(C(F)(F)F)nn1-c1ccc(NC(=O)c2ccccc2F)cc1 | 167 to 168 °C |
| Cc1cnc(-c2nn(C)c(OC(F)F)c2Cl)c(F)c1 | 41 to 42 °C |
| Cc1c(-c2ccc(OC3CCCC3)cc2)[nH]c2ccc(OCc3ccccc3)cc12 | 161 to 167 °C |
| COc1cc(I)c(C(=O)Cl)cc1OC | 151 to 154 °C |
| CCN(CC)CCC1CCCCN1CCNC(=O)N1c2ccccc2C(=O)Nc2cccnc21 (stereo unspecified) | 161 to 162 °C |
| O=c1cc2c(nn1-c1ccc(Cl)cc1)-c1ncccc1CC2 | 174 to 176 °C |
| COc1cccc(OCC(N)=O)c1-c1c(C#N)c2ccccn2c1Nc1c(C)cccc1C | 227 to 229 °C |
| CS(=O)c1ccc(-c2nn(Cc3cccnc3)c(=O)cc2-c2ccc(Cl)cc2)cc1 (stereo unspecified) | 155 °C |
| Cn1c(=O)c2c(ncn2CCCN2CCC(C(=O)c3ccc(F)cc3)CC2)n(C)c1=O | 114 to 119 °C |
| CCOC(=O)COc1c(F)cc(S(=O)(=O)CCNS(=O)(=O)c2ccc(Cl)cc2)cc1F | 166 to 167 °C |
| COC(=O)c1cccc(COC(OC(C)=O)C(=O)c2ccccc2)c1 (stereo unspecified) | 86 to 87 °C |
| CCCCCCS(=O)(=O)c1ccccc1C1NC(=O)NC1=O (stereo unspecified) | 188 to 189 °C |
| CCCCOc1c(CNC(=O)OC(C)(C)C)n(CC(C)C)c(=O)c2ccc(C(N)=NO)cc12 | 209 to 210 °C |
| O=S1(=O)CCN2C=CC=C(c3ccc(OC4CCCC4)cc3)C2=N1 | 254 to 256 °C |
| Cc1nc(S(=O)(=O)CC(N)=O)nc(C)c1Br | 175 to 177 °C |
| N#CC(Cl)Cc1ccc(C(=O)O)cc1 (stereo unspecified) | 157 °C |
| Cc1cccc(-c2nc(C(C)C)[nH]c2-c2ccc(F)c(-c3ccc(NS(=O)(=O)C4CC4)cc3)c2)n1 | 119 to 129 °C |

| SMILES | melting point |
| --- | --- |
| Sc1ccc(OCc2ccccc2)nn1 | 155 to 157 °C |
| Oc1ccc(-c2cc3c(Oc4ccc(Cl)cc4)cncc3s2)cc1 | 213 to 215 °C |
| O=C(Nc1ccc(C(=O)N2CCO[C@H]3CCCC[C@@H]32)cc1)c1ccc(Cl)cc1Cl (relative stereo) | 227 to 230 °C |
| CCCC1CCC(O)CC1 (stereo unspecified) | 109 °C |
| COc1ccc(CSc2c(O)cc(-c3ccccc3)oc2=O)cc1 | 168 to 170 °C |
| CC(=O)C1=C(C)Nc2nc(N)nc(N)c2C1c1ccccc1Cl (stereo unspecified) | 254 °C |
| CC(C)(C)OC(=O)Cn1ccc2cc(NC(=O)CC34CC5CC(CC(C5)C3)C4)ccc21 | 199 °C |
| CC(C)(C)c1cc(-c2ccc(F)cc2)cc(C(C)(C)C)c1O | 97 to 99 °C |
| CC1(C)CC(O)CC(C)(C)N1N=Nc1ccccc1 | 68 to 70 °C |
| CC(C)c1cccc(C(C)C)c1NC(=O)CO | 164 to 166 °C |
| CN1CC(=O)Nc2ncccc2C1=O | 245 to 247 °C |
| C=C(C)C(=O)OCCOc1ccc(C(=O)O)cc1 | 146 °C |
| CCCCCCc1cc(-c2cccs2)n[nH]1 | 53 to 55 °C |
| O=C(Nc1ccc(C(=O)N2Cc3ccccc3Cc3ccccc32)cc1)c1ccccc1C(F)(F)F | 191 to 193 °C |
| COc1cccc(OC)c1-c1nc2c(N[C@H]3[C@@H](C(N)=O)[C@@H]4C=C[C@H]3C4)c(Br)cnc2[nH]1 | 194 to 197 °C |
| COc1cc2ncc(C#N)c(Nc3cccc(NC(C)=O)c3)c2cc1OC | 147 to 150 °C |
| Cn1cc(-c2cc3cccnc3[nH]2)c2cc(C(=O)NCCN3CCOCC3)ccc21 | 268 to 270 °C |
| O=C(Nc1cccc(S(=O)(=O)NCc2ccncc2)c1)c1cnn2c(C(F)(F)F)cc(-c3ccc(C(F)(F)F)cc3)nc12 | 251 °C |
| CCOC(=O)C1=C(C)N=C(SCc2ccccc2)N(C(=O)OCC)C1c1ccccc1C(F)(F)F (stereo unspecified) | 85.5 to 87.5 °C |
| CCOC(=O)N1c2cc(OC)c(OC)cc2C(=O)C(=CNC)C1C (stereo unspecified) | 154 to 156 °C |
| COC(=O)CCCOc1cc([N+](=O)[O-])c(CO)cc1OC | 100 °C |
| Cc1c(O)ccc2c(O)c(C(=O)Nc3cccc(F)c3)c(=O)oc12 | 287 to 289 °C |
| C[Si](C)(C)c1ccc2cc(C(=O)Nc3cnc4sc(CO)nc4c3)n(Cc3nccs3)c2c1 | 219 to 220 °C |
